In patent US20110207751A1, “HETEROCYCLIC COMPOUNDS AND USES AS ANTICANCER AGENTS” (priority 2010, published 2011):
Structures can show the parent of a compound that is named as a salt.

Assays:
[1] = Body weight and animal number of carrier mice, MKN45 xenograft test; format: in vivo, BALB/c immunodeficient nude mice; conditions: for Animal No. end: 7 at beginning
Protocol: To evaluate the in vivo anticancer efficacy of COMPOUND O, MKN45 human gastric-intestinal cancer xenograft models in immunodeficient nude mice was tested. All the mouse models are maintained in the Pharmacology Lab of ACEA Bio (Hangzhou) CO., Ltd. The BALB/c immunodeficient nude mice were purchased from Shanghai SLAC Laboratory Animal, certification number: SCXKA (Shanghai) 2007-0005. The mouse weight was 19±1 g. Only female mice were used in this study. The numbers of animals tested were as follow: 7 for each dose group, 7 for positive control group and 7 for negative control group.
Test Control. For negative control, each mouse was administered orally with the solvent only having the same volume and same concentration as those used in COMPOUND O test, 120 mg/kg once every other day (qod) for 18 days. […]
Preparation an Administration of Test Compounds. COMPOUND O was dissolved in 25% phospholipid (S75) and 75% polyvinylpyrrolidone (PL-PVP) then further diluted to 8 mg/ml in 0.9% NaCl aqueous solution. Different dosages of COMPOUND O between 120 mg/kg qod (once every other day) and 160 mg/kg q3d (once every 3 days) were used in the study.
All used materials including animal food, animal cage, supporting materials and apparatus contacted by animals, were high-pressure sterilized. Nude mice were maintained in laminar flow shelves under SPF condition. After tumor transplantation, mouse weight and tumor size in each compound dosage group were dynamically monitored and plotted. The tumor size was determined by measuring the major axis (a) and minor axis (b) of the tumor, and tumor volume was calculated according to the formula: […]

[2] = Body weight and animal number of carrier mice, H460 xenograft test; format: in vivo, BALB/c immunodeficient nude mice; conditions: for Animal No. end: 7 at beginning
Text: To evaluate the in vivo anticancer efficacy of COMPOUND O, H460 human non-small cell lung Cancer xenograft models in immunodeficient nude mice was used. The cell line and mice were maintained in the Pharmacology Lab of ACEA Bio (Hangzhou) CO., Ltd. The BALB/c immunodeficient nude mice were purchased from Shanghai SLAC Laboratory Animal, certification number: SCXKA (Shanghai) 2007-0005. The mouse weight was between 19±2 g. Only female mice were used in this study. The numbers of animals tested were as follows: 7 for each dose group, 7 for positive control group and 7 for negative control group.
Test Control. For negative control, each mouse was administered orally with the solvent only having the same volume and same concentration as those used in COMPOUND O test, 120 mg/kg once every other day (qod) for 25 days. For positive control, an oral anticancer compound, Etoposide was administered orally at 30 mg/kg qod for 25 days.
Preparation an Administration of Test Compounds. COMPOUND O was dissolved in 25% phospholipid (S75) and 75% polyvinylpyrrolidone (PL-PVP) then further diluted to 8 mg/ml in 0.9% NaCl aqueous solution. Each mouse was administered orally with the compound solution. Different dosages of COMPOUND O (120 mg/kg qod and 160 mg/kg q3d) were used in the study.
All used materials including animal food, animal cage, supporting materials and apparatus contacted by animals, were high-pressure sterilized. Nude mice were maintained in laminar flow shelves under SPF condition. After tumor transplantation, mouse weight and tumor size in each compound dosage group were dynamically monitored and plotted. The tumor size was determined by measuring the major axis (a) and minor axis (b) of the tumor, and tumor volume was calculated according to the formula (2) in Example 1.

Compound: COc1cc([C@@H]2c3cc4c(cc3[C@@H](O[C@@H]3O[C@@H]5CO[C@@H](C)O[C@H]5[C@H](O)[C@H]3O)[C@H]3COC(=O)[C@H]23)OCO4)cc(OC)c1O [Etoposide, reference compound]
- Animal weight (g) Beginning ([1]; 50 mg/kg ig × 6 q3d): 18.9 g
- Animal weight (g) end ([1]; 50 mg/kg ig × 6 q3d): 16.9 g
- Body weight of mice (g) 1 day ([1]; 50 mg/kg ig × 6 q3d): 18.94 ± 0.92 g
- Body weight of mice (g) 4 day ([1]; 50 mg/kg ig × 6 q3d): 19.57 ± 1.16 g
- Body weight of mice (g) 8 day ([1]; 50 mg/kg ig × 6 q3d): 17.17 ± 0.85 g
- Body weight of mice (g) 11 day ([1]; 50 mg/kg ig × 6 q3d): 17.26 ± 1.24 g
- Body weight of mice (g) 16 day ([1]; 50 mg/kg ig × 6 q3d): 16.94 ± 0.91 g
- Body weight of mice (g) 18 day ([1]; 50 mg/kg ig × 6 q3d): 16.93 ± 0.75 g
- Animal No. end ([1]; 50 mg/kg ig × 6 q3d): 7/7
- Animal weight (g) Beginning ([2]; 30 mg/kg ig × 13 qod): 19.97 g
- Animal weight (g) end ([2]; 30 mg/kg ig × 13 qod): 17.13 g
- Body weight of mice (g) 1 day ([2]; 30 mg/kg ig × 13 qod): 19.97 ± 0.88 g
- Body weight of mice (g) 3 day ([2]; 30 mg/kg ig × 13 qod): 19.66 ± 0.75 g
- Body weight of mice (g) 7 day ([2]; 30 mg/kg ig × 13 qod): 19.70 ± 1.38 g
- Body weight of mice (g) 10 day ([2]; 30 mg/kg ig × 13 qod): 19.66 ± 1.10 g
- Body weight of mice (g) 14 day ([2]; 30 mg/kg ig × 13 qod): 18.86 ± 1.07 g
- Body weight of mice (g) 17 day ([2]; 30 mg/kg ig × 13 qod): 18.79 ± 1.17 g
- Body weight of mice (g) 22 day ([2]; 30 mg/kg ig × 13 qod): 17.86 ± 1.35 g
- Body weight of mice (g) 24 day ([2]; 30 mg/kg ig × 13 qod): 17.56 ± 1.44 g
- Body weight of mice (g) 25 day ([2]; 30 mg/kg ig × 13 qod): 17.13 ± 1.14 g
- Animal No. end ([2]; 30 mg/kg ig × 13 qod): 7/7

Compound: CCc1ccc(Nc2nc(-c3c(C)nc4sccn34)cs2)cc1 [COMPOUND O, 2-(4-ethylphenyl)amino-4-(6-methylimidazo[2,1-b]thiazol-5-yl)-thiazole monohydrobromide]
- Animal weight (g) Beginning ([1]; 120 mg/kg ig × 9 qod): 19 g
- Animal weight (g) end ([1]; 120 mg/kg ig × 9 qod): 16.7 g
- Body weight of mice (g) 1 day ([1]; 120 mg/kg ig × 9 qod): 19.03 ± 0.76 g
- Body weight of mice (g) 4 day ([1]; 120 mg/kg ig × 9 qod): 19.53 ± 0.71 g
- Body weight of mice (g) 8 day ([1]; 120 mg/kg ig × 9 qod): 18.24 ± 1.10 g
- Body weight of mice (g) 11 day ([1]; 120 mg/kg ig × 9 qod): 18.21 ± 1.02 g
- Body weight of mice (g) 16 day ([1]; 120 mg/kg ig × 9 qod): 17.09 ± 1.09 g
- Body weight of mice (g) 18 day ([1]; 120 mg/kg ig × 9 qod): 16.71 ± 0.97 g
- Animal No. end ([1]; 120 mg/kg ig × 9 qod): 7/7
- Animal weight (g) Beginning ([1]; 160 mg/kg ig × 6 q3d): 18.3 g
- Animal weight (g) end ([1]; 160 mg/kg ig × 6 q3d): 15.7 g
- Body weight of mice (g) 1 day ([1]; 160 mg/kg ig × 6 q3d): 18.37 ± 0.66 g
- Body weight of mice (g) 4 day ([1]; 160 mg/kg ig × 6 q3d): 19.10 ± 0.73 g
- Body weight of mice (g) 8 day ([1]; 160 mg/kg ig × 6 q3d): 17.33 ± 1.52 g
- Body weight of mice (g) 11 day ([1]; 160 mg/kg ig × 6 q3d): 17.15 ± 1.33 g
- Body weight of mice (g) 16 day ([1]; 160 mg/kg ig × 6 q3d): 16.43 ± 1.47 g
- Body weight of mice (g) 18 day ([1]; 160 mg/kg ig × 6 q3d): 15.73 ± 1.31 g
- Animal No. end ([1]; 160 mg/kg ig × 6 q3d): 7/3
- Animal weight (g) Beginning ([2]; 120 mg/kg ig × 11 qod): 20.04 g
- Animal weight (g) end ([2]; 120 mg/kg ig × 11 qod): 17.33 g
- Body weight of mice (g) 1 day ([2]; 120 mg/kg ig × 11 qod): 20.04 ± 0.51 g
- Body weight of mice (g) 3 day ([2]; 120 mg/kg ig × 11 qod): 19.80 ± 1.18 g
- Body weight of mice (g) 7 day ([2]; 120 mg/kg ig × 11 qod): 18.86 ± 0.70 g
- Body weight of mice (g) 10 day ([2]; 120 mg/kg ig × 11 qod): 18.20 ± 0.68 g
- Body weight of mice (g) 14 day ([2]; 120 mg/kg ig × 11 qod): 18.11 ± 0.49 g
- Body weight of mice (g) 17 day ([2]; 120 mg/kg ig × 11 qod): 17.43 ± 0.51 g
- Body weight of mice (g) 22 day ([2]; 120 mg/kg ig × 11 qod): 17.24 ± 0.72 g
- Body weight of mice (g) 24 day ([2]; 120 mg/kg ig × 11 qod): 17.56 ± 1.21 g
- Body weight of mice (g) 25 day ([2]; 120 mg/kg ig × 11 qod): 17.33 ± 1.23 g
- Animal No. end ([2]; 120 mg/kg ig × 11 qod): 7/7
- Animal weight (g) Beginning ([2]; 160 mg/kg ig × 9 q3d): 20.00 g
- Animal weight (g) end ([2]; 160 mg/kg ig × 9 q3d): 16.24 g
- Body weight of mice (g) 1 day ([2]; 160 mg/kg ig × 9 q3d): 20.00 ± 0.48 g
- Body weight of mice (g) 3 day ([2]; 160 mg/kg ig × 9 q3d): 20.54 ± 0.53 g
- Body weight of mice (g) 7 day ([2]; 160 mg/kg ig × 9 q3d): 18.64 ± 0.61 g
- Body weight of mice (g) 10 day ([2]; 160 mg/kg ig × 9 q3d): 17.89 ± 0.39 g
- Body weight of mice (g) 14 day ([2]; 160 mg/kg ig × 9 q3d): 17.83 ± 0.57 g
- Body weight of mice (g) 17 day ([2]; 160 mg/kg ig × 9 q3d): 18.24 ± 0.46 g
- Body weight of mice (g) 22 day ([2]; 160 mg/kg ig × 9 q3d): 16.91 ± 0.97 g
- Body weight of mice (g) 24 day ([2]; 160 mg/kg ig × 9 q3d): 16.53 ± 1.29 g
- Body weight of mice (g) 25 day ([2]; 160 mg/kg ig × 9 q3d): 16.24 ± 1.55 g
- Animal No. end ([2]; 160 mg/kg ig × 9 q3d): 7/7
